Assay results from paper PMC8690038, “Mechanism of the feedback-inhibition resistance in aspartate kinase of Corynebacterium pekinense: from experiment to MD simulations” (RSC Advances, 2020).

T1: WT (Corynebacterium glutamicum, UniProt P26512)
T1 construct: gene lysC; recombinant from pET-28a-AK, His Trap purified, about 48 kDa
T1 sequence (P26512 1-421): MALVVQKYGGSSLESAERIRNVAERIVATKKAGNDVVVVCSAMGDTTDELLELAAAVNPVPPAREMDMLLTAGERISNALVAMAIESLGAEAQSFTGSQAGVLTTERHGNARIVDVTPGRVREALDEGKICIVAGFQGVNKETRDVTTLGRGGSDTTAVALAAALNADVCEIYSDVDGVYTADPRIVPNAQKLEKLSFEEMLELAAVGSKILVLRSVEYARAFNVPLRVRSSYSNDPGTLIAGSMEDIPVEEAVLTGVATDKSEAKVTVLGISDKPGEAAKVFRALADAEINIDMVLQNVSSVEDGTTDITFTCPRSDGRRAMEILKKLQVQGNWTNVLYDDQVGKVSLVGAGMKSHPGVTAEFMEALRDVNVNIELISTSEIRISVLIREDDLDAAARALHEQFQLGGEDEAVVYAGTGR


Tests used:
[1] = target: T1, WT; assay: Microscale thermophoresis of NT-647-NHS-labelled AK (40 nM) with diluted Asp in the enzyme activity measurement system, 28 °C, Monolith NT.115, no Lys added.; assay type: binding; conditions: read-out: K d (mM) Asp
Procedure: (§1) The purified AK concentration was adjusted to 2–20 μM with labeled buffer. The solid fluorescent dye (NT-647-NHS) was appended with 100% DMSO (30 μL) and dissolved thoroughly after vortex vibration. Then the dyes were adjusted to 2–3 folds of the protein concentration with the marker buffer. Protein and the solid fluorescent dye were mingled in equal proportion for dark reaction 30 min, and then purified according to the purification kit operation. The unlabeled substrate Asp and inhibitor Lys were diluted in the enzymatic activity measurement system, and the final concentration ranged from […], respectively, which they were incubated with the labeled protein (40 nM) at room temperature for 10 min. Then the samples were loaded into the Standard Capillaries from Nano Temper Technologies. Thermophoresis was measured 30 min after incubation at 28 °C on Monolith NT.115.[22] The dissociation constant (Kd) values were fitted by means of the MO. Affinity analysis software.

[2] = target: T1, WT; assay: Microscale thermophoresis of NT-647-NHS-labelled AK (40 nM) with diluted Lys in the enzyme activity measurement system, 28 °C, Monolith NT.115.; assay type: binding; conditions: read-out: K d (mM) Lys
Procedure: as §1

[3] = target: T2, CpAK mutant A380C (Corynebacterium glutamicum, UniProt P26512, A362C); assay: Microscale thermophoresis (MST), A380C; assay type: binding, Corynebacterium pekinense
T2 construct: His-tag (pET-28a) (N); made in house; host or cells: E. coli BL21
Procedure: as §1

[4] = target: WT (wild-type CpAK); assay: Microscale thermophoresis (MST), WT; assay type: binding, Corynebacterium pekinense; conditions: 28 °C
Procedure: as §1

[5] = target: T3, CpAK mutant T379N/A380C (Corynebacterium glutamicum, UniProt P26512, A362C/T361N); assay: Microscale thermophoresis (MST), T379N/A380C; assay type: binding, Corynebacterium pekinense
T3 construct: His-tag (pET-28a) (N); made in house; host or cells: E. coli BL21
Procedure: as §1

[6] = target: T2, CpAK mutant A380C; assay: biochemical; set-up: species or system Corynebacterium pekinense; conditions: read-out: Relative activity (%)
Procedure: (§2) The reaction was performed through adding 20 μL purified enzyme and 20 μL substrate inhibitors (Lys, Thr, Met, Lys + Thr, Lys + Met, Thr + Met, and Lys + Thr + Met) at 0.2, 1, 5, and 10 mM. The reaction was finished by adding volume FeCl3 after 30 min and the absorbance was measured at 540 nm. Water was instead of the substrate inhibitor as blank control. The enzyme activity of blank control was defined as 100%.

[7] = target: T3, CpAK mutant T379N/A380C; assay: biochemical; set-up: species or system Corynebacterium pekinense; conditions: read-out: Relative activity (%)
Procedure: as §2

[8] = substrate: N[C@@H](CC(=O)O)C(=O)O; assay: Colorimetric end-point assay (FeCl3, 540 nm) with 0.5-16 mM L-Asp, 10.4 mM ATP, 1.6 mM MgSO4, 800 mM KCl, 800 mM NH4OH, 100 mM Tris-HCl pH 8.0, 28 °C, 30 min; fitted with the Hill equation.; assay type: biochemical
Procedure: The reaction system (1 mL) contained at the final concentration: 1.6 mM MgSO4, 800 mM KCl, 0.5–16 mM L-Asp, 10.4 mM ATP (dissoluted by 25 mM Tris–HCl), 100 mM Tris–HCl buffer solution (pH 8.0), 10 mM β-mercaptoethanol, and 800 mM NH4OH. The water was instead of L-Asp as blank control. The reaction was generated by adding 50 μL purified enzyme at 28 °C for 30 min, and stopped by adding FeCl3 solution (three parallel, below the same) and the absorbance were determined at 540 nm. The nonlinear curve was fitted by the Hill equation (V = Vmax (S^n)/(K^n + S^n)) using Origin 8.5 software. In the equation, the n value represents the Hill coefficient; the K value is equal to the substrate concentration at half the maximum rate of enzymatic reaction; Vmax and V indicate the maximum velocity and reaction rate, respectively; S means the substrate concentration.

| Molecule | activity at 200 µM [6] | activity at 1000 µM [6] | activity at 5000 µM [6] | activity at 10000 µM [6] | activity at 200 µM [7] | activity at 1000 µM [7] | activity at 5000 µM [7] | activity at 10000 µM [7] | Km [8] | other results |
| --- | --- | --- | --- | --- | --- | --- | --- | --- | --- | --- |
| N[C@@H](CC(=O)O)C(=O)O [Asp, L-aspartic acid (L-Asp)] | – | – | – | – | – | – | – | – | – | Kd [1]: 655.1 ± 0.9 mM |
| NCCCC[C@H](N)C(=O)O [Lys, lysine] | 94.8 ± 0.97% | 95.7 ± 1.43% | 99.7 ± 0.54% | 104 ± 1.32% | 96.99 ± 0.56% | 98.8 ± 4.95% | 106.9 ± 0.56% | 116 ± 1.81% | – | Kd [2]: 1.32 mM; Kd [3]: 5.32 ± 0.01 mM; Kd [4]: 1.32 mM; Kd [5]: 9.24 mM |
| CSCC[C@H](N)C(=O)O [Met, methionine] | 95.1 ± 1.69% | 97.71 ± 0.85% | 98.3 ± 2.6% | 98.1 ± 1.89% | 90.47 ± 0.12% | 96.33 ± 0.56% | 98.12 ± 0.44% | 99.47 ± 0.53% | – | – |
| C[C@@H](O)[C@H](N)C(=O)O [Thr, threonine] | 78.3 ± 1.19% | 80.9 ± 3.06% | 82.1 ± 3.56% | 87.8 ± 3.53% | 94.6 ± 3.26% | 97.06 ± 0.68% | 97.8 ± 1.95% | 98.12 ± 0.44% | – | – |
| WT (Corynebacterium glutamicum ATCC 13032) (protein, recombinant from pET-28a-AK, His Trap purified, about 48 kDa) MALVVQKYGGSSLESAERIRNVAERIVATKKAGNDVVVVCSAMGDTTDELLELAAAVNPVPPAREMDMLLTAGERISNALVAMAIESLGAEAQSFTGSQAGVLTTERHGNARIVDVTPGRVREALDEGKICIVAGFQGVNKETRDVTTLGRGGSDTTAVALAAALNADVCEIYSDVDGVYTADPRIVPNAQKLEKLSFEEMLELAAVGSKILVLRSVEYARAFNVPLRVRSSYSNDPGTLIAGSMEDIPVEEAVLTGVATDKSEAKVTVLGISDKPGEAAKVFRALADAEINIDMVLQNVSSVEDGTTDITFTCPRSDGRRAMEILKKLQVQGNWTNVLYDDQVGKVSLVGAGMKSHPGVTAEFMEALRDVNVNIELISTSEIRISVLIREDDLDAAARALHEQFQLGGEDEAVVYAGTGR | – | – | – | – | – | – | – | – | 4.17 mM | – |
| T379N/A380C (Corynebacterium glutamicum ATCC 13032; A362C/T361N) (protein, recombinant from pET-28a-AK in E. coli BL21, His Trap purified, about 48 kDa) MALVVQKYGGSSLESAERIRNVAERIVATKKAGNDVVVVCSAMGDTTDELLELAAAVNPVPPAREMDMLLTAGERISNALVAMAIESLGAEAQSFTGSQAGVLTTERHGNARIVDVTPGRVREALDEGKICIVAGFQGVNKETRDVTTLGRGGSDTTAVALAAALNADVCEIYSDVDGVYTADPRIVPNAQKLEKLSFEEMLELAAVGSKILVLRSVEYARAFNVPLRVRSSYSNDPGTLIAGSMEDIPVEEAVLTGVATDKSEAKVTVLGISDKPGEAAKVFRALADAEINIDMVLQNVSSVEDGTTDITFTCPRSDGRRAMEILKKLQVQGNWTNVLYDDQVGKVSLVGAGMKSHPGVNCEFMEALRDVNVNIELISTSEIRISVLIREDDLDAAARALHEQFQLGGEDEAVVYAGTGR | – | – | – | – | – | – | – | – | 2.89 mM | – |
| A380C (Corynebacterium glutamicum ATCC 13032; A362C) (protein, recombinant from pET-28a-AK in E. coli BL21, His Trap purified, about 48 kDa) MALVVQKYGGSSLESAERIRNVAERIVATKKAGNDVVVVCSAMGDTTDELLELAAAVNPVPPAREMDMLLTAGERISNALVAMAIESLGAEAQSFTGSQAGVLTTERHGNARIVDVTPGRVREALDEGKICIVAGFQGVNKETRDVTTLGRGGSDTTAVALAAALNADVCEIYSDVDGVYTADPRIVPNAQKLEKLSFEEMLELAAVGSKILVLRSVEYARAFNVPLRVRSSYSNDPGTLIAGSMEDIPVEEAVLTGVATDKSEAKVTVLGISDKPGEAAKVFRALADAEINIDMVLQNVSSVEDGTTDITFTCPRSDGRRAMEILKKLQVQGNWTNVLYDDQVGKVSLVGAGMKSHPGVTCEFMEALRDVNVNIELISTSEIRISVLIREDDLDAAARALHEQFQLGGEDEAVVYAGTGR | – | – | – | – | – | – | – | – | 3.57 mM | – |
